Data as given in patent publication US11655246B2, “Aminothiazole compounds as inhibitors of CTPS1” (STEP PHARMA S.A.S., priority 2017, dated 2023).
Structures can show the parent of a compound that is named as a salt.

Molecular target: T1, human CTPS1 (Homo sapiens, UniProt P17812)
T1 construct: purchased Proteros biostructures GmbH
T1 sequence (P17812 1-591): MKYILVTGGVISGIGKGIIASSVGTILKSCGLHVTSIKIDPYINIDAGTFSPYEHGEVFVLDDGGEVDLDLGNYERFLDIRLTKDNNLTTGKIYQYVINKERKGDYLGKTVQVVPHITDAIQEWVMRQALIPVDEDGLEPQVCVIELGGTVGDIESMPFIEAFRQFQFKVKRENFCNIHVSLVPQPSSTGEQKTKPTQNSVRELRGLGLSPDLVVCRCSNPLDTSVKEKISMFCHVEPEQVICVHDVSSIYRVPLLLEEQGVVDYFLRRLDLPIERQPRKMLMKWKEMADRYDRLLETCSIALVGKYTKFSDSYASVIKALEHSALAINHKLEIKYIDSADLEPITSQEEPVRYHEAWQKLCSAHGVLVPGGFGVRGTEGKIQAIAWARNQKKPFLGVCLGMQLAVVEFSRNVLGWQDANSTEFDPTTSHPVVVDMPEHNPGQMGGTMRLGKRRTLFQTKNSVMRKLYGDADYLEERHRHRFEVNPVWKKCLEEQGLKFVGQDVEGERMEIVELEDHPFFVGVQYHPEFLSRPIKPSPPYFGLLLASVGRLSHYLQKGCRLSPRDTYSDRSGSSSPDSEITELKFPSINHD
Experiment: Human CTPS1 enzyme inhibition (ADP-Glo Max assay)
Format: biochemical
Details: Table 18, additional potency data, 25° C., read-out: CTPS1 (Human CTPS1 Enzyme Inhibition data grouped by potency range)
Summary of the method: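 ADP-Glo Max luminescence detection of ATP-to-ADP conversion by the enzyme, in 50 mM Tris, 10 mM MgCl2, 0.01% Tween-20, pH 8.0, with 2 mM L-cysteine added fresh. Enzyme preincubated with compound 10 minutes at 25° C. Percentage inhibition calculated per compound concentration.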

| SMILES | IC50 [nM] |
| --- | --- |
| COC(C(=O)Nc1ccc(-c2cncc(C(F)(F)F)n2)cc1F)c1csc(NS(=O)(=O)C2CC2)n1 (stereo not shown) [T408, 2-(2-(cyclopropanesulfonamido)thiazol-4-yl)-N-(2-fluoro-4-(6-(trifluoromethyl)pyrazin-2-yl)phenyl)-2-methoxyacetamide] | < 100 |
| CCOc1cncc(-c2ccc(NC(=O)C(OC)c3csc(NS(=O)(=O)C4CC4)n3)c(F)c2)n1 (stereo not shown) [T409, 2-(2-(cyclopropanesulfonamido)thiazol-4-yl)-N-(4-(6-ethoxypyrazin-2-yl)-2-fluorophenyl)-2-methoxyacetamide] | < 100 |
| COC(C(=O)Nc1ccc(-c2cncc(OC(C)C)n2)cc1)c1csc(NS(=O)(=O)C2CC2)n1 (stereo not shown) [T411, 2-(2-(cyclopropanesulfonamido)thiazol-4-yl)-N-(4-(6-isopropoxypyrazin-2-yl)phenyl)-2-methoxyacetamide] | < 100 |
| NC(C(=O)Nc1ccc(-c2cncc(C(F)(F)F)n2)cn1)c1csc(NS(=O)(=O)C2CC2)n1 (stereo not shown) [T417, 2-Amino-2-(2-(cyclopropanesulfonamido)thiazol-4-yl)-N-(5-(6-(trifluoromethyl)pyrazin-2-yl)pyridin-2-yl)acetamide hydrochloride] | 100 to 1000 |
| NC(C(=O)Nc1ccc(-c2cncc(C(F)(F)F)n2)cc1F)c1csc(NS(=O)(=O)C2CC2)n1 (stereo not shown) [T418, 2-Amino-2-(2-(cyclopropanesulfonamido)thiazol-4-yl)-N-(2-fluoro-4-(6-(trifluoromethyl)pyrazin-2-yl)phenyl)acetamide] | 100 to 1000 |
| CCOc1cncc(-c2ccc(NC(=O)C(N)c3csc(NS(=O)(=O)C4CC4)n3)c(F)c2)n1 (stereo not shown) [T419, 2-Amino-2-(2-(cyclopropanesulfonamido)thiazol-4-yl)-N-(4-(6-ethoxypyrazin-2-yl)-2-fluorophenyl)acetamide hydrochloride] | < 100 |
| CN(C)C(C(=O)Nc1ccc(-c2cncc(C(F)(F)F)n2)cc1F)c1csc(NS(=O)(=O)C2CC2)n1 (stereo not shown) [T420, 2-(2-(Cyclopropanesulfonamido)thiazol-4-yl)-2-(dimethylamino)-N-(2-fluoro-4-(6-(trifluoromethyl)pyrazin-2-yl)phenyl)acetamide] | < 100 |
| CCOc1cncc(-c2ccc(NC(=O)C(c3csc(NS(=O)(=O)C4CC4)n3)N(C)C)c(F)c2)n1 (stereo not shown) [T421, 2-(2-(Cyclopropanesulfonamido)thiazol-4-yl)-2-(dimethylamino)-N-(4-(6-ethoxypyrazin-2-yl)-2-fluorophenyl)acetamide] | < 100 |
| CCOc1cncc(-c2ccc(NC(=O)C(C)(C)c3csc(NS(=O)(=O)CC4CC4)n3)c(F)c2)n1 [T433] | < 100 |
| CCOc1cncc(-c2cnc(NC(=O)C(CCOC)c3csc(NS(=O)(=O)C4CC4)n3)c(F)c2)n1 (stereo not shown) [T435] | < 100 |
| CCOc1cncc(-c2ccc(NC(=O)C(CCOC)c3csc(NS(=O)(=O)C4CC4)n3)nc2)n1 (stereo not shown) [T436] | < 100 |
| COCCC(C(=O)Nc1ccc(-c2cncc(C(F)(F)F)n2)cc1)c1csc(NS(=O)(=O)C2CC2)n1 (stereo not shown) [T437] | < 100 |
| CCOc1cncc(-c2cnc(NC(=O)C(CC)c3csc(NS(=O)(=O)C4CC4)n3)c(C)c2)n1 (stereo not shown) [T438] | < 100 |
| CCOc1cncc(-c2ccc(NC(=O)C(CC)c3csc(NS(=O)(=O)C4CC4)n3)c(Cl)c2)n1 (stereo not shown) [T439] | < 100 |
| CCOc1cncc(-c2ccc(NC(=O)C(CC)c3csc(NS(=O)(=O)C4CC4)n3)c(C#N)c2)n1 (stereo not shown) [T440] | < 100 |
| CCOc1cncc(-c2ccc(NC(=O)C(CC)c3csc(NS(=O)(=O)C4CC4)n3)c(C)c2)n1 (stereo not shown) [T441] | < 100 |
| CCOc1cncc(-c2ccc(NC(=O)C(CC)c3csc(NS(=O)(=O)C4CC4)n3)c(OC(F)(F)F)c2)n1 (stereo not shown) [T442] | < 100 |
| CCOc1cncc(-c2ccc(NC(=O)C(CC)c3csc(NS(=O)(=O)C4CC4)n3)c(OC)c2)n1 (stereo not shown) [T443] | < 100 |
| CCNc1cncc(-c2ccc(NC(=O)C(CC)c3csc(NS(=O)(=O)C4CC4)n3)cc2)n1 (stereo not shown) [T444, 2-(2-(Cyclopropanesulfonamido)thiazol-4-yl)-N-(4-(6-(ethylamino)pyrazin-2-yl)phenyl)butanamide] | < 100 |

Further lines, results first:

| IC50 [nM] | SMILES |
| --- | --- |
| < 100 | CCOc1cncc(-c2cnc(NC(=O)C(OC)c3csc(NS(=O)(=O)C4CC4)n3)c(F)c2)n1 (stereo not shown) [T445] |
| < 100 | CCOc1cncc(-c2ccc(NC(=O)C(OC)c3csc(NS(=O)(=O)C4CC4)n3)nc2)n1 (stereo not shown) [T446] |
| < 100 | COC(C(=O)Nc1ccc(-c2cncc(F)c2)cc1C(F)(F)F)c1csc(NS(=O)(=O)C2CC2)n1 (stereo not shown) [T447] |
| < 100 | COC(C(=O)Nc1ccc(-c2cncc(C(F)(F)F)c2)cc1F)c1csc(NS(=O)(=O)C2CC2)n1 (stereo not shown) [T448] |
| < 100 | CCOc1cncc(-c2ccc(NC(=O)C(OC)c3csc(NS(=O)(=O)C4CC4)n3)c(C(F)(F)F)c2)n1 (stereo not shown) [T449] |
| < 100 | CCOc1cncc(-c2ccc(NC(=O)C(OC)c3csc(NS(=O)(=O)C4CC4)n3)c(Cl)c2)n1 (stereo not shown) [T450] |
| < 100 | CCOc1cncc(-c2ccc(NC(=O)C(OC)c3csc(NS(=O)(=O)C4CC4)n3)c(C#N)c2)n1 (stereo not shown) [T451] |
| < 100 | COC(C(=O)Nc1ccc(-c2cncc(C(F)(F)F)n2)cc1F)c1csc(NS(C)(=O)=O)n1 (stereo not shown) [T452] |
| < 100 | CCOc1cncc(-c2cc(F)c(NC(=O)C(OC)c3csc(NS(=O)(=O)C4CC4)n3)c(F)c2)n1 (stereo not shown) [T453] |
| < 100 | CCOc1cncc(-c2ccc(NC(=O)C(OC)c3csc(NS(=O)(=O)C4CC4)n3)c(OC(F)(F)F)c2)n1 (stereo not shown) [T454] |
| < 100 | CCOc1cncc(-c2ccc(NC(=O)C(OC)c3csc(NS(C)(=O)=O)n3)cc2)n1 (stereo not shown) [T455] |
| 100 to 1000 | COc1cncc(-c2ccc(N3CCC(c4csc(NS(=O)(=O)C5CC5)n4)C3=O)cc2)c1 (stereo not shown) [T463] |
